15 compounds from US20240360178A1, “MACROCYCLIC IMMUNOMODULATORS” (Bristol-Myers Squibb Company, priority 2021, published 2024) can be followed below.

Positions of bridges follow the written chain, without caps; N, C: chain ends. Non-standard residues stand in square brackets, D forms with d. Residues, ends and D or L forms follow the SMILES beside them. Phe(3-CF3) = N[C@@H](Cc1cccc(C(F)(F)F)c1)C(=O)O; Bip = N[C@@H](Cc1ccc(-c2ccccc2)cc1)C(=O)O; Phe(3-OMe) = COc1cccc(C[C@H](N)C(=O)O)c1; Phe(3-Me) = Cc1cccc(C[C@H](N)C(=O)O)c1; NMeF = CN[C@@H](Cc1ccccc1)C(=O)O; Cit = NC(=O)NCCC[C@H](N)C(=O)O; NMeA = CN[C@@H](C)C(=O)O; Orn = NCCC[C@H](N)C(=O)O; Dab = NCC[C@H](N)C(=O)O

For the experiment, the target named is T1, human PD-1 (Jurkat-PD-1 cells) / PE-labeled human PD-L1-Ig (Homo sapiens, UniProt Q15116).
T1 construct: expressed in transfected cells; host or cells: Jurkat cell line over-expressing human PD-1
T1 sequence (Q15116 25-288): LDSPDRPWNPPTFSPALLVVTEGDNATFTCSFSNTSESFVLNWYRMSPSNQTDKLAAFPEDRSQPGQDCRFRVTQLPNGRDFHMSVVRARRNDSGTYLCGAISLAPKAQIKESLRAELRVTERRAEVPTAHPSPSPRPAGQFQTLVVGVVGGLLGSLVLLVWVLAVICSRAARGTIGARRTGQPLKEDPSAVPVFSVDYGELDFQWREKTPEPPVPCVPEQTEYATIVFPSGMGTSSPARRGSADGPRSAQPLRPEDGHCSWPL
The experiment is described as follows: Jurkat-PD-1 Cell Binding High-Content Screening Assay (CBA); Jurkat hPD1-PDL1 assay. The note with it: Jurkat cell line over-expressing human PD-1; PE-labeled PD-L1-Ig 20 nM final; compound incubated 2 hours at 37° C.; read-out: Jurkat HPD1-PDL1 IC50. A digest of the protocol: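 Cell binding by imaging: Jurkat line stably over-expressing human PD-1, compound pre-exposure 2 h at 37° C, PE-conjugated PD-L1-Ig 20 nM final, medium DMEM containing 10% FCS.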
As to `CC(C)C[C@@H]1NC(=O)[C@H](CCCNC(=N)N)NC(=O)[C@H](Cc2ccccc2)N(C)C(=O)[C@@H](CCCCN)NC(=O)[C@H](CCCNC(=N)N)NC(=O)[C@H](Cc2ccc(-c3ccccc3)cc2)NC(=O)[C@H](C(C)C)NC(=O)[C@H](Cc2c[nH]c3ccccc23)NC(=O)[C@H](CC(=O)O)NC(=O)[C@H](Cc2ccc(O)cc2)NC(=O)[C@H](CC(N)=O)NC(=O)CSC[C@@H](C(=O)N[C@@H](C)C(N)=O)NC(=O)[C@H]([C@@H](C)O)NC(=O)[C@H](C(C)C)NC1=O` [Example 1369] ({CH2CO}-NYDWV[Bip]R[dK][NMeF]RLVTCA-NH2; thioether N-14), the 50% inhibitory concentration (IC50) was found to be 330 nM. As for `CC(C)C[C@@H]1NC(=O)[C@H](CCCNC(=N)N)NC(=O)[C@H](Cc2ccccc2)N(C)C(=O)[C@H](C)N(C)C(=O)[C@H](CCCNC(N)=O)NC(=O)[C@H](Cc2ccc(-c3ccccc3)cc2)NC(=O)[C@H](C(C)C)NC(=O)[C@H](Cc2c[nH]c3ccccc23)NC(=O)[C@H](CC(=O)O)NC(=O)[C@H](Cc2ccc(O)cc2)NC(=O)[C@H](CC(N)=O)NC(=O)CSC[C@@H](C(=O)N[C@@H](C)C(N)=O)NC(=O)[C@H](CCCN)NC(=O)[C@H](C(C)C)NC1=O` [Example 1371] ({CH2CO}-NYDWV[Bip][Cit][NMeA][NMeF]RLV[Orn]CA-NH2; thioether N-14), the IC50 was 230 nM.

For the compound `CC(C)C[C@@H]1NC(=O)[C@H](CCCNC(=N)N)NC(=O)[C@H](Cc2ccccc2)N(C)C(=O)[C@H](C)N(C)C(=O)[C@H](CCCNC(=N)N)NC(=O)[C@H](Cc2ccc(-c3ccccc3)cc2)NC(=O)[C@H](C(C)C)NC(=O)[C@H](Cc2c[nH]c3ccccc23)NC(=O)[C@H](CC(=O)O)NC(=O)[C@H](Cc2ccc(O)cc2)NC(=O)[C@H](CC(N)=O)NC(=O)CSC[C@@H](C(=O)N[C@@H](C)C(N)=O)NC(=O)[C@H](CCCN)NC(=O)[C@H](C(C)C)NC1=O` [Example 1373] ({CH2CO}-NYDWV[Bip]R[NMeA][NMeF]RLV[Orn]CA-NH2; thioether N-14), the IC50 was determined as 180 nM. In the case of `Cc1cccc(C[C@@H]2NC(=O)[C@H](CC(=O)O)NC(=O)[C@H](Cc3ccc(O)cc3)NC(=O)[C@H](CC(N)=O)NC(=O)CSC[C@@H](C(=O)N[C@@H](C)C(N)=O)NC(=O)[C@H]([C@@H](C)O)NC(=O)[C@H](C(C)C)NC(=O)[C@H](CC(C)C)NC(=O)[C@H](CCN)NC(=O)[C@H](Cc3ccccc3)N(C)C(=O)[C@H](C)N(C)C(=O)[C@H](CCCNC(N)=O)NC(=O)[C@H](Cc3ccc(-c4ccccc4)cc3)NC(=O)[C@H](C(C)C)NC2=O)c1` [Example 1374] ({CH2CO}-NYD[Phe(3-Me)]V[Bip][Cit][NMeA][NMeF][Dab]LVTCA-NH2; thioether N-14) it was 10 nM; in that of `COc1cccc(C[C@@H]2NC(=O)[C@H](CC(=O)O)NC(=O)[C@H](Cc3ccc(O)cc3)NC(=O)[C@H](CC(N)=O)NC(=O)CSC[C@@H](C(=O)N[C@@H](C)C(N)=O)NC(=O)[C@H]([C@@H](C)O)NC(=O)[C@H](C(C)C)NC(=O)[C@H](CC(C)C)NC(=O)[C@H](CCN)NC(=O)[C@H](Cc3ccccc3)N(C)C(=O)[C@H](C)N(C)C(=O)[C@H](CCCNC(N)=O)NC(=O)[C@H](Cc3ccc(-c4ccccc4)cc3)NC(=O)[C@H](C(C)C)NC2=O)c1` [Example 1375] ({CH2CO}-NYD[Phe(3-OMe)]V[Bip][Cit][NMeA][NMeF][Dab]LVTCA-NH2; thioether N-14), 80 nM.

Consider `CC(C)C[C@@H]1NC(=O)[C@H](CCN)NC(=O)[C@H](Cc2ccccc2)N(C)C(=O)[C@H](C)N(C)C(=O)[C@H](CCCNC(N)=O)NC(=O)[C@H](Cc2ccc(-c3ccccc3)cc2)NC(=O)[C@H](C(C)C)NC(=O)[C@H](Cc2cccc(C(F)(F)F)c2)NC(=O)[C@H](CC(=O)O)NC(=O)[C@H](Cc2ccc(O)cc2)NC(=O)[C@H](CC(N)=O)NC(=O)CSC[C@@H](C(=O)N[C@@H](C)C(N)=O)NC(=O)[C@H]([C@@H](C)O)NC(=O)[C@H](C(C)C)NC1=O` [Example 1376] ({CH2CO}-NYD[Phe(3-CF3)]V[Bip][Cit][NMeA][NMeF][Dab]LVTCA-NH2; thioether N-14), for which the IC50 turned out to be 70 nM.

As to `CC(C)C[C@@H]1NC(=O)[C@H](CCCNC(=N)N)NC(=O)[C@H](Cc2ccccc2)N(C)C(=O)[C@H](C)N(C)C(=O)[C@H](CCCNC(N)=O)NC(=O)[C@H](Cc2ccc(-c3ccccc3)cc2)NC(=O)[C@H](C(C)C)NC(=O)[C@H](Cc2c[nH]c3ccccc23)NC(=O)[C@H](CC(=O)O)NC(=O)[C@H](Cc2ccc(O)cc2)NC(=O)[C@H](CC(N)=O)NC(=O)CSC[C@@H](C(=O)N[C@@H](C)C(N)=O)NC(=O)[C@H](CO)NC(=O)[C@H](C(C)C)NC1=O` [Example 1377] ({CH2CO}-NYDWV[Bip][Cit][NMeA][NMeF]RLVSCA-NH2; thioether N-14), the IC50 was 40 nM. As for `CC(C)C[C@@H]1NC(=O)[C@H](CCCNC(=N)N)NC(=O)[C@H](Cc2ccccc2)N(C)C(=O)[C@H](C)N(C)C(=O)[C@H](CCC(=O)O)NC(=O)[C@H](Cc2ccc(-c3ccccc3)cc2)NC(=O)[C@H](C(C)C)NC(=O)[C@H](Cc2c[nH]c3ccccc23)NC(=O)[C@H](CC(=O)O)NC(=O)[C@H](Cc2ccc(O)cc2)NC(=O)[C@H](CC(N)=O)NC(=O)CSC[C@@H](C(=O)N[C@@H](C)C(N)=O)NC(=O)[C@H](CCCN)NC(=O)[C@H](C(C)C)NC1=O` [Example 1378] ({CH2CO}-NYDWV[Bip]E[NMeA][NMeF]RLV[Orn]CA-NH2; thioether N-14), the IC50 was found to be 110 nM. To `CC(C)C[C@@H]1NC(=O)[C@H](CCCNC(=N)N)NC(=O)[C@H](Cc2ccccc2)N(C)C(=O)[C@H](C)N(C)C(=O)[C@H](CCC(=O)O)NC(=O)[C@H](Cc2ccc(-c3ccccc3)cc2)NC(=O)[C@H](C(C)C)NC(=O)[C@H](Cc2c[nH]c3ccccc23)NC(=O)[C@H](CC(=O)O)NC(=O)[C@H](Cc2ccc(O)cc2)NC(=O)[C@H](CC(N)=O)NC(=O)CSC[C@@H](C(=O)N[C@@H](C)C(N)=O)NC(=O)[C@H]([C@@H](C)O)NC(=O)[C@H](C(C)C)NC1=O` [Example 1379] ({CH2CO}-NYDWV[Bip]E[NMeA][NMeF]RLVTCA-NH2; thioether N-14) belongs 40 nM; to `CC(C)C[C@@H]1NC(=O)[C@H](CCN)NC(=O)[C@H](Cc2ccccc2)N(C)C(=O)[C@H](C)N(C)C(=O)[C@H](CCC(=O)O)NC(=O)[C@H](Cc2ccc(-c3ccccc3)cc2)NC(=O)[C@H](C(C)C)NC(=O)[C@H](Cc2c[nH]c3ccccc23)NC(=O)[C@H](CC(=O)O)NC(=O)[C@H](Cc2ccc(O)cc2)NC(=O)[C@H](CC(N)=O)NC(=O)CSC[C@@H](C(=O)N[C@@H](C)C(N)=O)NC(=O)[C@H](CCCN)NC(=O)[C@H](C(C)C)NC1=O` [Example 1380] ({CH2CO}-NYDWV[Bip]E[NMeA][NMeF][Dab]LV[Orn]CA-NH2; thioether N-14), 70 nM.

Consider `CC(C)C[C@@H]1NC(=O)[C@H](CCCNC(=N)N)NC(=O)[C@H](Cc2ccccc2)N(C)C(=O)[C@H](C)N(C)C(=O)[C@H](CCCNC(N)=O)NC(=O)[C@H](Cc2ccc(-c3ccccc3)cc2)NC(=O)[C@H](C(C)C)NC(=O)[C@H](Cc2c[nH]c3ccccc23)NC(=O)[C@H](CC(=O)O)NC(=O)[C@H](Cc2ccc(O)cc2)NC(=O)[C@H](CC(N)=O)NC(=O)CSC[C@@H](C(=O)NCC(N)=O)NC(=O)[C@H](CO)NC(=O)[C@H](C(C)C)NC1=O` [Example 1381] ({CH2CO}-NYDWV[Bip][Cit][NMeA][NMeF]RLVSCG-NH2; thioether N-14), for which the IC50 worked out at 160 nM. Consider `CC(C)C[C@@H]1NC(=O)[C@H](CCCNC(=N)N)NC(=O)[C@H](Cc2ccccc2)N(C)C(=O)[C@H](C)N(C)C(=O)[C@H](CCC(=O)O)NC(=O)[C@H](Cc2ccc(-c3ccccc3)cc2)NC(=O)[C@H](C(C)C)NC(=O)[C@H](Cc2c[nH]c3ccccc23)NC(=O)[C@H](CC(=O)O)NC(=O)[C@H](Cc2ccc(O)cc2)NC(=O)[C@H](CC(N)=O)NC(=O)CSC[C@@H](C(=O)N[C@@H](C)C(N)=O)NC(=O)[C@H](CO)NC(=O)[C@H](C(C)C)NC1=O` [Example 1382] ({CH2CO}-NYDWV[Bip]E[NMeA][NMeF]RLVSCA-NH2; thioether N-14), for which the concentration for half-maximal inhibition (IC50) stood at 130 nM. In the case of `CC(C)C[C@@H]1NC(=O)[C@H](CCCNC(=N)N)NC(=O)[C@H](Cc2ccccc2)N(C)C(=O)[C@H](CCCN)NC(=O)[C@H](CCCNC(=N)N)NC(=O)[C@H](Cc2ccc(-c3ccccc3)cc2)NC(=O)[C@H](C(C)C)NC(=O)[C@H](Cc2c[nH]c3ccccc23)NC(=O)[C@H](CC(=O)O)NC(=O)[C@H](Cc2ccc(O)cc2)NC(=O)[C@H](CC(N)=O)NC(=O)CSC[C@@H](C(=O)N[C@@H](C)C(N)=O)NC(=O)[C@H]([C@@H](C)O)NC(=O)[C@H](C(C)C)NC1=O` [Example 1383] ({CH2CO}-NYDWV[Bip]R[Orn][NMeF]RLVTCA-NH2; thioether N-14) it was 630 nM. Turning to `CC(C)C[C@@H]1NC(=O)[C@H](CCCCN)NC(=O)[C@H](Cc2ccccc2)N(C)C(=O)[C@H](C)N(C)C(=O)[C@H](CCCNC(=N)N)NC(=O)[C@H](Cc2ccc(-c3ccccc3)cc2)NC(=O)[C@H](C(C)C)NC(=O)[C@H](Cc2c[nH]c3ccccc23)NC(=O)[C@H](CC(=O)O)NC(=O)[C@H](Cc2ccc(O)cc2)NC(=O)[C@H](CC(N)=O)NC(=O)CSC[C@@H](C(=O)N[C@@H](C)C(N)=O)NC(=O)[C@H]([C@@H](C)O)NC(=O)[C@H](C(C)C)NC1=O` [Example 1384] ({CH2CO}-NYDWV[Bip]R[NMeA][NMeF]KLVTCA-NH2; thioether N-14), the IC50 was 220 nM.

In the case of `CC(C)C[C@@H]1NC(=O)[C@H](CCCCN)NC(=O)[C@H](Cc2ccccc2)N(C)C(=O)[C@H](C)N(C)C(=O)[C@H](CCCNC(=N)N)NC(=O)[C@H](Cc2ccc(-c3ccccc3)cc2)NC(=O)[C@H](C(C)C)NC(=O)[C@H](Cc2c[nH]c3ccccc23)NC(=O)[C@H](CC(=O)O)NC(=O)[C@H](Cc2ccc(O)cc2)NC(=O)[C@H](CC(N)=O)NC(=O)CSC[C@@H](C(=O)N[C@@H](C)C(N)=O)NC(=O)[C@H]([C@@H](C)O)NC(=O)[C@H](C(C)C)NC1=O` [Example 1385] ({CH2CO}-NYDWV[Bip]R[NMeA][NMeF]KLVTCA-NH2; thioether N-14), the half-inhibitory concentration (IC50) was 280 nM.
